Columns and labels:
[1] = biological target: T1, Peptidyl-prolyl cis-trans isomerase FKBP4 (Homo sapiens, UniProt Q02790); assay: Binding affinity to FKBP52 (unknown origin) by competitive fluorescence polarization assay
T1 sequence (Q02790 whole entry): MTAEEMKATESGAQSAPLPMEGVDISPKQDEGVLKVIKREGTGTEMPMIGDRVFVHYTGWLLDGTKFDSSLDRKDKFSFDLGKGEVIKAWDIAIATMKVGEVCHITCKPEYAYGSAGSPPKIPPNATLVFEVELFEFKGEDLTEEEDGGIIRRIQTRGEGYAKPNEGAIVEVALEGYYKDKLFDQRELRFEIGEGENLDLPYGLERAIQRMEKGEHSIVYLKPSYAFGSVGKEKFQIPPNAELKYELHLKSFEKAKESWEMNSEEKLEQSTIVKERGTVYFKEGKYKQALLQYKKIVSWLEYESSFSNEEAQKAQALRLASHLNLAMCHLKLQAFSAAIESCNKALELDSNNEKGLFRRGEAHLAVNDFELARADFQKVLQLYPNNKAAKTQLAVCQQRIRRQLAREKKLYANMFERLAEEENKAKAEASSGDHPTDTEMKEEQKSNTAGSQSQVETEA

[2] = biological target: Peptidyl-prolyl cis-trans isomerase FKBP1A (Homo sapiens, UniProt P62942); assay: Binding affinity to FKBP12 (unknown origin) by competitive fluorescence polarization assay
Chain of Peptidyl-prolyl cis-trans isomerase FKBP1A (P62942 whole entry): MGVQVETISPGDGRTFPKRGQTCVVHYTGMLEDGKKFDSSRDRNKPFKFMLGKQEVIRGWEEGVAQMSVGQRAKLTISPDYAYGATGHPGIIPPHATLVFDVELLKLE

[3] = biological target: T2, Peptidyl-prolyl cis-trans isomerase FKBP5 (Homo sapiens, UniProt Q13451)
T2 sequence (Q13451 whole entry): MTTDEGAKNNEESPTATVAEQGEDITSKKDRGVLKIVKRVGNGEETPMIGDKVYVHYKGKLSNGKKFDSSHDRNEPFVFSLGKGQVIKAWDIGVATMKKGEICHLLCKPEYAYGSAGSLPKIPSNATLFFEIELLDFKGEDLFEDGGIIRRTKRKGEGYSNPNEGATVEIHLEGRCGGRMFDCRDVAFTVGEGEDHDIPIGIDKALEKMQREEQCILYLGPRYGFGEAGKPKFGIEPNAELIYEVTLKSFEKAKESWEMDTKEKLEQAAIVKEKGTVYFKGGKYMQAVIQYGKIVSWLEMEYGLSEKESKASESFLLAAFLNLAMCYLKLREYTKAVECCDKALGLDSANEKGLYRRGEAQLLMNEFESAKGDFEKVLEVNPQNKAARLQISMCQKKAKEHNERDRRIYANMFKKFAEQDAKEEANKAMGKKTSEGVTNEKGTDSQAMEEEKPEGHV

Row | Compound | Ki [1] | Ki [2] | Ki [3]
1 | COc1ccc(CC[C@@H](OC(=O)[C@@H]2CCCCN2C(=O)[C@H](c2cc(OC)c(OC)c(OC)c2)C2CCCCC2)c2cccc(OCC(=O)O)c2)cc1OC | > 50 µM | 90 nM | 4 nM
2 | COc1cc(OC)cc([C@@H](C(=O)N2CCCC[C@H]2C(=O)O[C@H](CCc2ccc(OC)c(OC)c2)c2cccc(OCC(=O)O)c2)C2CCCCC2)c1 | > 50 µM | 600 nM | 110 nM
3 | COc1cccc([C@@H](C(=O)N2CCCC[C@H]2C(=O)O[C@H](CCc2ccc(OC)c(OC)c2)c2cccc(OCC(=O)O)c2)C2CCCCC2)c1 | > 100 µM | 1200 nM | 160 nM
4 | COc1ccc(CC[C@@H](OC(=O)[C@@H]2CCCCN2C(=O)CC2CCCCC2)c2cccc(OCC(=O)O)c2)cc1OC | 9.7 µM | 300 nM | 

Reference: ChEMBL document CHEMBL3621038, “Structure-Affinity Relationship Analysis of Selective FKBP51 Ligands” (J Med Chem, 2015)
